Assay results reported in US8765755B2, “N-containing heterocyclic compounds” (YM Biosciences Australia Pty Ltd, priority 2007, dated 2014).

What was measured:
[1] = tested on: BafT_J3; experiment: Cellular screening, BaF3 TEL:JAK3 cells (Alamar Blue); type: cell-based; conditions: Mus musculus, 40 hr incubation
Protocol: (§1) For screening purposes, compounds were diluted in 96 well plates at a concentration of 20 μM. Plates were warmed at 37° C. for 30 minutes before the assay was performed.
(§2) The coding region encompassing nucleotides 1-487 of TEL was amplified by PCR using the oligonucleotides 5TEL (5′-GGAGGATCCTGATCTCTCTCGCTGTGAGAC-3′) [SEQ ID NO 14] and 3TEL (5′-AGGC GTCGACTTCTTCTTCATGGTTCTG-3′) [SEQ ID NO 15] and U937 mRNA as a template. A BamHI restriction site was incorporated into the 5TEL primer, and a Sal I restriction site was incorporated into the 3TEL primer. The regions encompassing the kinase domain of JAK2 (nucleotides 2994-3914; JAK2F 5′-ACGC GTCGACGGTGCCTTTGAAGACCGGGAT-3′ [SEQ ID NO 16]; JAK2R 5′-ATAGTTTAGCGGCCGCTCAGAATGAAGGTCATTT-3′) [SEQ ID NO 17] and JAK3 (nucleotides 2520-3469; JAK3F 5′-GAAGTCGACTATGCCTGCCAAGACCCCACGATCTT-3′) [SEQ ID NO 18] were generated by PCR using Taq DNA polymerase (Gibco/BRL) and U937 mRNA as a template. A Sal I restriction site was incorporated into the forward primer of JAK2 and JAK3, a Not I site was incorporated into the JAK2 reverse primer and a Xba I site was added to the reverse primer of JAK3.
The TEL/Jak3 fusion was prepared by ligation of the JAK3 Sal I/Not I cleaved kinase domain PCR product with the BamH I/Sal I restriction digested TEL product, followed by ligation of the ligation product into the BamH I/Not I digested pTRE2, to give the TEL/Jak3 fusion plasmid pTELJAK3.
(§3) The growth factor dependant myelomonocytic cell line BaF3 bearing the pTET-off plasmid (Clontech) was transfected with either pTELJAK2 or pTELJAK3, and the transfected cells were selected for growth-factor independent cell growth. The BaF3 wild-type cells were cultured in DMEM containing 10% FCS, 10% WEHI 3B conditioned medium. The BaF3 TELJAK cells ([…]) were cultured in DMEM 10% Tet-System Approved FBS (without WEHI 3B conditioned medium).
(§4) Cell suspensions were prepared by harvesting cells from culture. (the cells used in this test were in late log phase growth with high viability.) Cells were diluted in the appropriate growth medium, as described above, to 1.1× final concentration (from 50,000 cell/mL to 200,000 cell/mL, depending on cell line).
(§5) Compounds to be tested were added (10 μL, 10× final concentration) to a flat bottomed 96-well plate. The cellular suspension (90 μL per well) was then added, and the plate incubated for 40 hr at 37° C., 5% CO2. Alamar Blue 10 μL per well was added and the plates returned to the incubator for a further 4-6 hours. The plates were then read at 544 nm.

[2] = tested on: BAF3wt; experiment: Cellular screening, BaF3 wild-type cells (Alamar Blue); type: cell-based; conditions: Mus musculus, 40 hr incubation
Protocol: as §1, §3, §4, §5

[3] = biological target: T1, human JAK3 (Homo sapiens, UniProt P52333); experiment: JAK3 kinase enzyme assay (Alphascreen); type: biochemical; conditions: 80 or 625 um ATP
T1 construct: The kinase domain of human JAK3 was amplified; GST (N); made in house; host or cells: Sf9 (Spodoptera frugiperda) insect cells, baculovirus
T1 sequence (P52333 822-1111 limits assumed): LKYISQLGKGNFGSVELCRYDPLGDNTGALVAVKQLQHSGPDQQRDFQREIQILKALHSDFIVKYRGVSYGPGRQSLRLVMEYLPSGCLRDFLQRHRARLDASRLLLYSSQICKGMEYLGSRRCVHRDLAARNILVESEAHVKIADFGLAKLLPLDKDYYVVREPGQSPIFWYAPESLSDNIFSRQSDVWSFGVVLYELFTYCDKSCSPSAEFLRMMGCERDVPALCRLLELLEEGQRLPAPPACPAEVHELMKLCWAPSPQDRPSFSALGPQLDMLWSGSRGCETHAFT
Protocol: (§6) For screening purposes, compounds (in 100% DMSO) were warmed at 37 degrees for at least 20 minutes before use. A […] stock was initially made in assay buffer, where the final concentration of DMSO was 0.3%. The stocks were then diluted in 384 well Optiplates (Packard) where the final concentration of the compound was 5 μM.
The kinase domain of human JAK3 was amplified from U937mRNA using the polymerase chain reaction with the following primers: […]
The JAK3 PCR products were cloned into the pDest20 destination expression vector (Gibco). The JAK3 plasmid was then transformed into competent DH10Bac cells (Gibco), and the recombinant baculovirus was prepared via Sf9 insect cell transfection.
(§7) Baculovirus preparations from each of the JAK family members were infected into one litre of Sf9 (Spodoptera frugiperda) cells (Invitrogen) grown in SF900II serum free medium (Invitrogen) to a cell density of approximately 2×10^6 cells/ml. Cells were infected with virus at a cell culture to virus stock ratio of 20:1. Cells were harvested and lysed 48 hours post infection. The GST-tagged JAK kinase domains were purified by affinity chromatography on a GSH agarose column (Scientifix).
(§8) Kinase assays were performed in 384 well Optiplates (Packard) using an Alphascreen Protein Tyrosine KinaseP100 detection kit The compounds were pre-incubated with affinity purified PTK domain in the presence of phosphotyrosine assay buffer (10 mM HEPES, pH 7.5, 100 mM MgCl2, 25 mM NaCl, 200 mM sodium vanadate and 0.1% Tween 20) for 20 minutes. The compounds were then incubated with substrate in the presence of either 80 or 625 um ATP for 60 or 90 minutes. The substrate used was either susbtrate-1 with the sequence biotin-EGPWLEEEEEAYGWMDF-NH2 [SEQ. ID. NO. 13] (final concentration 111 μM) or susbtrate-2 substrate with the sequence biotin-EQEDEPEGDYFEWLEPE (final concentration 133 μM). Alphascreen phosphotyrosine acceptor beads followed by streptavidin donor beads at a concentration of 1/100 in stop buffer were added to each well under subdued light and incubated for 2-3 hours. The Alphascreen plates were read on a Packard Fusion Alpha instrument.

[4] = tested on: BafT_J2; experiment: Cellular screening, BaF3 TEL:JAK2 cells (Alamar Blue); type: cell-based; conditions: Mus musculus, 40 hr incubation
Protocol: as §1, §2
A TEL/Jak2 fusion was generated by digestion of the TELPCR product with BamH I/Sal I restriction enzymes, digestion of the JAK2 PCR product with Sal I/Not I restriction enzymes, followed by ligation and subcloning of the ligation product into the mammalian expression Vector pTRE 2 (Clontech), which was prepared by digestion with BamH I-Not I restriction enzymes, to give the TEL/Jak2 fusion plasmid pTELJAK2.
as §3, §4, §5

[5] = tested on: CTLL2; experiment: Cellular screening, CTLL2 cells (Alamar Blue); type: cell-based; conditions: Mus musculus, CTLL-2, 40 hr incubation
Protocol: as §1, §4, §5

[6] = biological target: T2, human JAK2 (Homo sapiens, UniProt O60674); experiment: JAK2 kinase enzyme assay (Alphascreen); type: biochemical; conditions: 80 or 625 um ATP
T2 construct: The kinase domain of human JAK2 was amplified; GST (N); made in house; host or cells: Sf9 (Spodoptera frugiperda) insect cells, baculovirus
T2 sequence (O60674 849-1124 limits assumed): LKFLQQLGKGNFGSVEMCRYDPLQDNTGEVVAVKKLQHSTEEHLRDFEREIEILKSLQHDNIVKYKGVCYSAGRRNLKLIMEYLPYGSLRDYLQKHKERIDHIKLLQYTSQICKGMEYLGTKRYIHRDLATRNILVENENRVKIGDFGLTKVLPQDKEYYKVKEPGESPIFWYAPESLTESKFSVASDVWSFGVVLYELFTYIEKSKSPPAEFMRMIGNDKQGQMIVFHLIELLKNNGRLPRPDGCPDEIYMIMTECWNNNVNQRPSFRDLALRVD
Protocol: as §6
The kinase domain of human JAK2 was amplified from U937mRNA using the polymerase chain reaction with the following primers: […]
The JAK2 PCR products were cloned into the pDest20 destination vector (Gibco). The JAK2 plasmid was then transformed into competent DH10Bac cells (Gibco), and the recombinant baculovirus was prepared via Sf9 insect cell transfection.
as §7, §8

Compound	IC50 [1] [µM]	IC50 [2] [µM]	IC50 [3] [µM]	IC50 [4] [µM]	IC50 [5] [µM]	IC50 [6] [µM]
COc1ncc(-c2csc3cnc(Nc4ccc(OC)c(OC)c4)nc23)c(OC)n1 [Compound 56, N-(3,4-dimethoxyphenyl)-7-(2,4-dimethoxypyrimidin-5-yl)thieno[3,2-d]pyrimidin-2-amine]	< 5	< 5	< 0.1	< 5	< 5	< 0.1
CC(C)(C)NS(=O)(=O)c1cccc(-c2csc3cnc(Nc4ccc(CN5CCOCC5)cc4)nc23)c1 [Compound 58, N-tert-butyl-3-(2-(4-(morpholinomethyl)phenylamino)thieno[3,2-d]pyrimidin-7-yl)benzenesulfonamide]	< 1	< 1	< 0.5	< 1	< 1	< 0.1
CC(=O)Nc1cccc(-c2csc3cnc(Nc4ccc(OCCN5CCCC5)cc4)nc23)c1 [Compound 62, N-(3-(2-(4-(2-(pyrrolidin-1-yl)ethoxy)phenylamino)thieno[3,2-d]pyrimidin-7-yl)phenyl)acetamide]	< 1	< 1	< 0.1	< 1	< 1	< 0.1
N#CCNC(=O)c1cccc(-c2csc3cnc(Nc4ccc(N5CCOCC5)cc4)nc23)c1 [Compound 63, N-(cyanomethyl)-3-(2-(4-morpholinophenylamino)thieno[3,2-d]pyrimidin-7-yl)benzamide]	< 1	< 1	< 0.1	< 1	< 1	< 0.1
CCN1CCC(Oc2ccc(Nc3ncc4scc(-c5cccc(S(=O)(=O)NC(C)(C)C)c5)c4n3)cc2)CC1 [Compound 65, N-tert-butyl-3-(2-(4-(1-ethylpiperidin-4-yloxy)phenylamino)thieno[3,2-d]pyrimidin-7-yl)benzenesulfonamide]	< 1	< 5	< 0.1	< 1	< 5	< 0.1
CCN1CCN(Cc2ccc(Nc3ncc4scc(-c5cccc(S(=O)(=O)NC(C)(C)C)c5)c4n3)cc2)CC1 [Compound 68, N-tert-butyl-3-(2-(4-((4-ethylpiperazin-1-yl)methyl)phenylamino)thieno[3,2-d]pyrimidin-7-yl)benzenesulfonamide]	< 1	< 1	< 0.5	< 1	< 5	< 0.1
N#CCNC(=O)c1cccc(-c2csc3cnc(Nc4ccc(CN5CCOCC5)cc4)nc23)c1 [Compound 70, N-(cyanomethyl)-3-(2-(4-(morpholinomethyl)phenylamino)thieno[3,2-d]pyrimidin-7-yl)benzamide]	< 1	< 1	< 0.1	< 1	< 5	< 0.1
CC(C)(C)NS(=O)(=O)c1cccc(-c2csc3cnc(Nc4ccc(OCCN5CCCC5)cc4)nc23)c1 [Compound 71, N-tert-butyl-3-(2-(4-(2-(pyrrolidin-1-yl)ethoxy)phenylamino)thieno[3,2-d]pyrimidin-7-yl)benzenesulfonamide]	< 1	< 5	< 0.1	< 1	< 5	< 0.1
CC(C)(C)OC(=O)NCc1cccc(-c2csc3cnc(Nc4ccc(OCCN5CCCC5)cc4)nc23)c1 [Compound 72]	< 1	< 5	< 0.1	< 1	< 1	< 0.1
NS(=O)(=O)c1cccc(-c2csc3cnc(Nc4ccc(OCCN5CCCC5)cc4)nc23)c1 [Compound 73, 3-(2-(4-(2-(pyrrolidin-1-yl)ethoxy)phenylamino)thieno[3,2-d]pyrimidin-7-yl)benzenesulfonamide]	< 1	< 1	< 0.1	< 1	< 5	< 0.1
Fc1ccc(-c2csc3cnc(Nc4ccc(OCCN5CCCC5)cc4)nc23)cc1Cl [Compound 74, 7-(3-chloro-4-fluorophenyl)-N-(4-(2-(pyrrolidin-1-yl)ethoxy)phenyl)thieno[3,2-d]pyrimidin-2-amine]	< 5	< 5	< 0.5	< 1	< 5	< 0.1
c1cc(Nc2ncc3scc(-c4ccc5c(c4)OCO5)c3n2)ccc1CN1CCOCC1 [Compound 76, 7-(benzo[d][1,3]dioxol-5-yl)-N-(4-(morpholinomethyl)phenyl)thieno[3,2-d]pyrimidin-2-amine]	< 1	< 1	< 0.5	< 1	< 1	< 0.1
CC(C)(C)OC(=O)N1CC=C(c2csc3cnc(Nc4ccc(CN5CCOCC5)cc4)nc23)CC1 [Compound 79, tert-butyl 4-(2-(4-(morpholinomethyl)phenylamino)thieno[3,2-d]pyrimidin-7-yl)-5,6-dihydropyridine-1(2H)-carboxylate]	< 5	< 5	< 0.1	< 1	< 1	< 0.1
CC(=O)Nc1cccc(-c2csc3cnc(Nc4ccc(CN5CCOCC5)cc4)nc23)c1 [Compound 81, N-(3-(2-(4-(morpholinomethyl)phenylamino)thieno[3,2-d]pyrimidin-7-yl)phenyl)acetamide]	< 1	< 1	< 0.5	< 1	< 1	< 0.1
